According to US6734203B2, “Fused imidazolium derivatives” (priority 2000, dated 2004):

assay: Mouse single administration toxicity test; type: in vivo, Balb/C mice; conditions: 3 mg/kg single intravenous administration, observation period of 2 weeks
Procedure: (Test methods) The compounds of the invention were administered by single intravenous administration to Balb/C mice, and the presence of mortal case during the observation period of 2 weeks was evaluated.

SMILES | presence of mortal case
COCCNC1=C(N(Cc2ccncc2)C(C)=O)C(=O)c2ccccc2C1=O [Example 4, N-[3-(2-methoxyethyl)amino-1,4-dihydro-1,4-dioxo-2-naphthalenyl]-N-(4-pyridylmethyl)acetamide] | Mortal case was not found
COCC[n+]1c2c(n(Cc3ccc(Cl)nc3)c1C)C(=O)c1ccccc1C2=O.[Cl-] [Example 9, 1-[(6-chloro-3-pyridyl)methyl]-3-(2-methoxyethyl)-2-methyl-4,9-dioxo-4,9-dihydro-1H-naphtho[2,3-d]imidazol-3-ium chloride] | Mortal case was not found
COCCN(C(C)=O)C1=C(NCc2cccnc2)C(=O)c2ccccc2C1=O [Example 35, N-(2-methoxyethyl)-N-[3-(3-pyridylmethyl)amino-1,4-dihydro-1,4-dioxo-2-naphthalenyl]acetamide] | Mortal case was not found
COCCN(C(C)=O)C1=C(NCc2ccncc2)C(=O)c2ccccc2C1=O [Example 37, N-(2-methoxyethyl)-N-[3-(4-pyridylmethyl)amino-1,4-dihydro-1,4-dioxo-2-naphthalenyl]acetamide] | Mortal case was not found
COCCn1c2c([n+](CCOC)c1C)C(=O)c1ccccc1C2=O [Example 148, 1,3-bis(2-methoxyethyl)-2-methyl-4,9-dioxo-4,9-dihydro-1H-naphtho[2,3-d]imidazol-3-ium] | Mortal case was not found
COCC[n+]1c2c(n(Cc3cnccn3)c1C)C(=O)c1ccccc1C2=O [Example 154, 3-(2-methoxyethyl)-2-methyl-4,9-dioxo-1-(2-pyrazinylmethyl)-4,9-dihydro-1H-naphtho[2,3-d]imidazol-3-ium] | Mortal case was not found
COCCn1c2c([n+](Cc3cccnc3)c1C)C(=O)c1ccccc1C2=O [Example 180, 1-(2-methoxyethyl)-2-methyl-4,9-dioxo-3-(3-pyridylmethyl)-4,9-dihydro-1H-naphtho[2,3-d]imidazol-3-ium] | Mortal case was not found
COCCn1c2c([n+](Cc3ccncc3)c1C)C(=O)c1ccccc1C2=O.Cl.[Cl-] [Example 182, 1-(2-methoxyethyl)-2-methyl-3-(4-pyridylmethyl)-4,9-dihydro-4,9-dioxo-1H-naphtho[2,3-d]imidazol-3-ium chloride monohydrochloride] | Mortal case was not found
COCC[n+]1c2c(n(Cc3cccnc3Cl)c1C)C(=O)c1ccccc1C2=O [Example 184, 1-[(2-chloro-3-pyridyl)methyl]-3-(2-methoxyethyl)-2-methyl-4,9-dioxo-4,9-dihydro-1H-naphtho[2,3-d]imidazol-3-ium] | Mortal case was not found
COCC[n+]1c2c(n(Cc3ccnc(O)c3)c1C)C(=O)c1ccccc1C2=O [Example 185, 1-[(2-hydroxy-4-pyridyl)methyl]-3-(2-methoxyethyl)-2-methyl-4,9-dioxo-4,9-dihydro-1H-naphtho[2,3-d]imidazol-3-ium] | Mortal case was not found
COCC[n+]1c2c(n(Cc3ccc(OC)nc3)c1C)C(=O)c1ccccc1C2=O [Example 186, 3-(2-methoxyethyl)-1-[(6-methoxy-3-pyridyl)methyl]-2-methyl-4,9-dioxo-4,9-dihydro-1H-naphtho[2,3-d]imidazol-3-ium] | Mortal case was not found
COCC[n+]1c2c(n(Cc3ccnc(Cl)c3)c1C)C(=O)c1ccccc1C2=O [Example 192, 1-[(2-chloro-4-pyridyl)methyl]-3-(2-methoxyethyl)-2-methyl-4,9-dioxo-4,9-dihydro-1H-naphtho[2,3-d]imidazol-3-ium] | Mortal case was not found
COCC[n+]1c2c(n(Cc3ccc(Cl)cc3)c1C)C(=O)c1ccccc1C2=O [Example 197, 1-(4-chlorobenzyl)-3-(2-methoxyethyl)-2-methyl-4,9-dioxo-4,9-dihydro-1H-naphtho[2,3-d]imidazol-3-ium] | Mortal case was not found
Cn1c2c([n+](C)c1CCl)C(=O)c1ccccc1C2=O [KP-1, reference compound] | all of respective 2 cases died
CCn1c2c([n+](CC)c1C)C(=O)c1ccccc1C2=O [KP-3, reference compound] | all of respective 2 cases died
